Test results taken from patent US20210290680A1, “METHODS AND COMPOSITIONS FOR MODULATING CELLULAR AGING” (Dorian Therapeutics, Inc., priority 2019, published 2021).

Assays:
CD69 = experiment: Exhaustion marker CD69 by flow cytometry; assay type: cell-based, human; conditions: for CD69%: day 16, n=3; for reduction of exhaustion marker CD69 expression (shCtrl vs shRNA): primary T cells, day 20
Experimental: Primary T cells were activated as described (Example 3), transduced with a lentivirus encoding either a shUSP16 #1, shUSP16 #2 or a non-targeting shRNA (shCtrl) and cells were selected with puromycin at day 6. At day 20, T cells were stained for CD69-Allophycocyanin (Biolegend) and T cells analyzed by MACSQuant (Miltenyi Biotec) (FIG. 19). Three primary T cell cultures were analyzed.
Primary T cells were activated as described (Example 3), transduced with a lentivirus encoding for either a CD19.CAR or a GD2.CAR co-expressing shUSP16 #1, shUSP16 #2 or a scrambled shRNA (Control). Cells were cultured in IL-2 and sorted between days 6-13 for EGFRt. At day 16, T cells were stained for exhaustion markers, including CD69.

CDKN2A = experiment: qPCR of senescence marker CDKN2A; assay type: cell-based, human; conditions: CD19.CAR, day 15, n=4
Description: Primary T cells were activated as described (Example 3), transduced with a lentivirus encoding for either a CD19.CAR or a GD2.CAR co-expressing shUSP16 #1, shUSP16 #2 or a scrambled shRNA (Control). Fifteen days post-activation, T cells were collected and qPCR performed. TaqMan probes detecting CDKN1A, CDKN2A (FIGS. 26A and 26B) (fold change GD2.CAR (n=4): CDKN1A Control vs shUSP #1: 0.4360, p<0.0001, and Control vs shUSP16 #2: 3.036, p=0.004 respectively. Fold change CD19.CAR (n=4): CDKN2a, CDKN1A Control vs shUSP #1: 0.6906, p=0.0026; 0.7228, p=0.0297 and Control vs shUSP16 #2: 0.8385, p=0.2325; 0.7017, p=0.0021), TCF7, LEF1, and Axin-2 (FIGS. 27A and B) were analyzed in GD2.CAR and CD19.CAR-expressing cells, respectively. ACTB was used as internal control. (GD2.CAR (n=4) TCF7, LEF1 and Axin-2: Control vs shUSP #1: 1.914 p=0.0512; 1.795 p=0.0323; 3.269 p=0.15 and Control vs shUSP16 #2: 1.284 p=0.0494; 1.718 p=0.0586; 2.035p=0.235, respectively. Fold change CD19.CAR (n=4): TCF7, LEF1 and Axin-2: Control vs shUSP #1: 1.528, p=0.0277; 1.82, p=0.0449; 1.998, p=0.031 and Control vs shUSP16 #2: 1.18, p=0.2002; 1.579, p=0.0632; 1.261, p=0.2382). […]

[1] = test system: CHLA-55 neuroblastoma cell lines; experiment: In vivo anti-tumor activity of GD2.CAR T cells (circulating Gaussia luciferase); conditions: immunocompromised mice, one million GD2.CAR T cells via tail vein, n=4-6
Experimental: Primary T cells were activated as described (Example 3), transduced with a lentivirus encoding for either a CD19.CAR or a GD2.CAR co-expressing shUSP16 #1, shUSP16 #2, or a scrambled shRNA (Control). Cells were cultured in IL-2 and sorted between days 6-13 for EGFRt. At day 15 cells were frozen down (to mimic the clinic setting) and thawed d−1 before injection in immunocompromised mice. Immunocompromised mice (NCG (NOD CRISPR Prkdc II2r Gamma) were provided by Charles River and NSG (NOD.Cg-PrkdcIL2rg<tm1Wj1>/SzJ) were purchased from Jackson Laboratory). CHLA-55 neuroblastoma cell lines were transduced with Gaussia Luciferase and one million cells were injected via tail vein at d−7 (day minus 7).
One million of GD2.CAR T cells were infused via tail vain at day 0 and mice were weighted, and blood was collected every week (FIG. 36). Tumor growth was monitor by weekly assessment of circulating luciferase. Briefly, blood was collected and subsequently analyzed for luciferase expression using Nanolight Technologies Luciferase detection Kit. Luciferase expression (calculated as GLuc, RLU (Relative Luminescence Unit)) in the blood correlates with tumor engraftment.

Substance | CD69% (CD69; CD19.CAR) [%] | CD69% (CD69; GD2.CAR) [%] | reduction of exhaustion marker CD69 expression (shCtrl vs shRNA) (CD69) [%] | CDKN2a expression, fold change vs Control (CDKN2A) | CHLA-55 engraftment, luciferase expression in blood (GLuc) [1] [RLU]
shUSP16 #1: shRNA targeting USP16, 5′-GACTGTAAGACTGACAATAAA-3′ (SEQ ID NO: 8), pSIH backbone or co-expressed in CAR plasmid | 13.70 | 23.05 | 41 | 0.6906 | 53279
shUSP16 #2: shRNA targeting USP16, 5′-TATATCAGTTCACCCGTAAT-3′ (SEQ ID NO: 9), pSIH backbone or co-expressed in CAR plasmid | 27.17 | 27.8 | 40 | 0.8385 | 38968
